A value given as a limit tells only on which side of the number the result lay.

The target of one experiment is T1, full length AKT E17K (Homo sapiens, UniProt P31749, E17K).
T1 construct: host or cells: HEK-293 (ATCC CRL-1573)
T1 sequence (P31749 whole entry E17K): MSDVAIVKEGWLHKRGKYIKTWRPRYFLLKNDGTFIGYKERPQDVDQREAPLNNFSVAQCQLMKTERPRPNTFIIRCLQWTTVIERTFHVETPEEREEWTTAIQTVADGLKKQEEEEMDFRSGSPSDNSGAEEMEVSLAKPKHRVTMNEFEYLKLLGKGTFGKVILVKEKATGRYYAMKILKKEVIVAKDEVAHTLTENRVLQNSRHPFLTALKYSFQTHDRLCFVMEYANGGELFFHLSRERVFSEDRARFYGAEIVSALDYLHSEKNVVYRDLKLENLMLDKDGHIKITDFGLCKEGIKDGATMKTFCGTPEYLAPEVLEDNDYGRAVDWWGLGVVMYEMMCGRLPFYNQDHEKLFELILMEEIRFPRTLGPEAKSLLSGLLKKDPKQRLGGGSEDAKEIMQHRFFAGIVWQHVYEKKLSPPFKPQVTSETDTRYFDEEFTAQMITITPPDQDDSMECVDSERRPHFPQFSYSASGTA
The experiment is described as follows: NanoBRET Target Engagement (TE) Assay. The class given is cell-based. The note with it: competitive displacement of tracer in cells, read-out: AKT1 E17K IC50. The method in brief: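 Compound and tracer incubated 2 h before luminescence at donor 450 nm and acceptor 600 nm, with extracellular signal inhibited. EC50 by sigmoidal variable-slope regression.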
(In general: BRET reads energy transfer from a luciferase to a nearby fluorophore.)
`[2H]C([2H])([2H])N(c1ccc2nc(-c3cccnc3N)n(-c3ccc(CN4CCC(Nc5ccnc(C#N)n5)CC4)cc3)c2n1)C([2H])([2H])[2H]` [Example 458, 4-((1-(4-(2-(2-Aminopyridin-3-yl)-5-(bis(methyl-d3)amino)-3H-imidazo[4,5-b]pyridin-3-yl)benzyl)piperidin-4-yl)amino)pyrimidine-2-carbonitrile]: the IC50 is less than 15 nM.

Turning to `N#Cc1ncnc(N2C[C@@H]3C[C@H]2CN3Cc2ccc(-n3c(-c4cccnc4N)nc4ccc(-c5ccccc5)nc43)cc2)n1` [Example 338, 4-((1S,4S)-5-(4-(2-(2-Aminopyridin-3-yl)-5-phenyl-3H-imidazo[4,5-b]pyridin-3-yl)benzyl)-2,5-diazabicyclo[2.2.1]heptan-2-yl)-1,3,5-triazine-2-carbonitrile], the IC50 fell in the range of 15 to 60 nM.

As to `Cc1cc(-c2ccc3nc(-c4cccnc4N)n(-c4ccc(CN5CCC(Nc6ccnc(C#N)n6)CC5)cc4)c3n2)ccn1` [Example 477, 4-((1-(4-(2-(2-Aminopyridin-3-yl)-5-(2-methylpyridin-4-yl)-3H-imidazo[4,5-b]pyridin-3-yl)benzyl)piperidin-4-yl)amino)pyrimidine-2-carbonitrile], the IC50 was less than 15 nM.

As for `[2H]c1nc(OC([2H])([2H])[2H])ccc1-c1ccc2nc(-c3cccnc3N)n(-c3ccc(CN4CCC(Nc5ccnc(C#N)n5)CC4)cc3)c2n1` [Example 597, 4-((1-(4-(2-(2-aminopyridin-3-yl)-5-(6-(methoxy-d3)pyridin-3-yl-2-d)-3H-imidazo[4,5-b]pyridin-3-yl)benzyl)piperidin-4-yl)amino)pyrimidine-2-carbonitrile], the IC50 is less than 15 nM.

`[2H]C([2H])([2H])Oc1ccc2nc(-c3cccnc3N)n(-c3ccc(CN4CCC(Nc5ccnc(C#N)n5)CC4)cc3)c2n1` [Example 427, 4-((1-(4-(2-(2-Aminopyridin-3-yl)-5-(methoxy-d3)-3H-imidazo[4,5-b]pyridin-3-yl)benzyl)piperidin-4-yl)amino)pyrimidine-2-carbonitrile]: the IC50 is less than 15 nM.

Take `Cc1cccc(-c2ccc3nc(-c4cccnc4N)n(-c4ccc(CN5CCC(Nc6ccnc(C#N)n6)CC5)cc4)c3n2)n1` [Example 571, 4-((1-(4-(2-(2-Aminopyridin-3-yl)-5-(6-methylpyridin-2-yl)-3H-imidazo[4,5-b]pyridin-3-yl)benzyl)piperidin-4-yl)amino)pyrimidine-2-carbonitrile]: the IC50 was less than 15 nM.

Staying with this experiment, now noted: competitive tracer displacement in living cells, read-out: AKT1 E17K IC50.
With `COc1ccc2nc(-c3cccnc3N)n(-c3ccc(CN4CCC(Nc5ccnc(C#N)n5)CC4)cc3)c2n1` [Example 287, 4-((1-(4-(2-(2-Aminopyridin-3-yl)-5-methoxy-3H-imidazo[4,5-b]pyridin-3-yl)benzyl)piperidin-4-yl)amino)pyrimidine-2-carbonitrile], the IC50 is less than 15 nM.

In the case of `N#Cc1cc(N2C[C@H]3C[C@@H]2CN3Cc2ccc(-n3c(-c4cccnc4N)nc4ccc(-c5ccccc5)nc43)cc2)ncn1` [Example 218, 6-((1R,4R)-5-(4-(2-(2-Aminopyridin-3-yl)-5-phenyl-3H-imidazo[4,5-b]pyridin-3-yl)benzyl)-2,5-diazabicyclo[2.2.1]heptan-2-yl)pyrimidine-4-carbonitrile], the IC50 lay within 15 to 60 nM.

On to `N#Cc1ccncc1C(=O)N1CCN(Cc2ccc(-n3c(-c4cccnc4N)nc4cccnc43)cc2)CC1` [Example 155, 3-(4-(4-(2-(2-Aminopyridin-3-yl)-3H-imidazo[4,5-b]pyridin-3-yl)benzyl)piperazine-1-carbonyl)isonicotinonitrile], for which the IC50 is 600 to 10000 nM.

For `Cc1ccc2nc(-c3cccnc3N)n(-c3ccc(CN4CCC(Nc5ccnc(C#N)n5)CC4)cc3)c2n1` [Example 280, 4-((1-(4-(2-(2-Aminopyridin-3-yl)-5-methyl-3H-imidazo[4,5-b]pyridin-3-yl)benzyl)piperidin-4-yl)amino)pyrimidine-2-carbonitrile], the IC50 is less than 15 nM.

By IC50 is commonly meant the point on the concentration scale where inhibition reaches its midpoint.
